Results published in BindingDB's records for patent US20250115578 (Chengdu Kanghong Pharmaceutical, 2025).
pIC50: −log10 of the molar value.

Biological target: Sodium channel protein type 10 subunit alpha (Homo sapiens, UniProt Q9Y5Y9)
Test: Electrophysiological Assay
Experimental: A capillary glass pipette (BF150-86-10, Sutter Instruments) was pulled into a recording electrode with a micropipette puller (P97, Sutter Instruments). The micromanipulator (MP285, Sutter Instruments) was manipulated under an inverted microscope (IX71, Olympus) to make the recording electrode contact the cell and negative pressure suction was applied to achieve a GQ seal. Then, rapid capacitance compensation was performed, and negative pressure was continued, cell membrane was broken by suction, and whole cell recording mode was formed. Then the slow capacitance was compensated and the membrane capacitance and series resistance were recorded without leakage compensation. When the whole cell recording current was stabilized, dosing was initiated, and the next concentration was detected after acting 5 minutes of each drug concentration. Multiple cells were independently repeated during the recording period. All electrophysiological assays were performed at room temperature. Specifically, 6 concentrations (measuring IC50) or 2 concentrations (preliminary screening) were set for each compound, and the percentage of inhibition of sodium channels was determined by calculating the relative percentage of peak current generated before and after each concentration compound treated cells, and the IC50 value or percentage of inhibition at a specific concentration was calculated using IGOR pro software.

Sodium channel protein type 10 subunit alpha, sequence (Q9Y5Y9 whole entry): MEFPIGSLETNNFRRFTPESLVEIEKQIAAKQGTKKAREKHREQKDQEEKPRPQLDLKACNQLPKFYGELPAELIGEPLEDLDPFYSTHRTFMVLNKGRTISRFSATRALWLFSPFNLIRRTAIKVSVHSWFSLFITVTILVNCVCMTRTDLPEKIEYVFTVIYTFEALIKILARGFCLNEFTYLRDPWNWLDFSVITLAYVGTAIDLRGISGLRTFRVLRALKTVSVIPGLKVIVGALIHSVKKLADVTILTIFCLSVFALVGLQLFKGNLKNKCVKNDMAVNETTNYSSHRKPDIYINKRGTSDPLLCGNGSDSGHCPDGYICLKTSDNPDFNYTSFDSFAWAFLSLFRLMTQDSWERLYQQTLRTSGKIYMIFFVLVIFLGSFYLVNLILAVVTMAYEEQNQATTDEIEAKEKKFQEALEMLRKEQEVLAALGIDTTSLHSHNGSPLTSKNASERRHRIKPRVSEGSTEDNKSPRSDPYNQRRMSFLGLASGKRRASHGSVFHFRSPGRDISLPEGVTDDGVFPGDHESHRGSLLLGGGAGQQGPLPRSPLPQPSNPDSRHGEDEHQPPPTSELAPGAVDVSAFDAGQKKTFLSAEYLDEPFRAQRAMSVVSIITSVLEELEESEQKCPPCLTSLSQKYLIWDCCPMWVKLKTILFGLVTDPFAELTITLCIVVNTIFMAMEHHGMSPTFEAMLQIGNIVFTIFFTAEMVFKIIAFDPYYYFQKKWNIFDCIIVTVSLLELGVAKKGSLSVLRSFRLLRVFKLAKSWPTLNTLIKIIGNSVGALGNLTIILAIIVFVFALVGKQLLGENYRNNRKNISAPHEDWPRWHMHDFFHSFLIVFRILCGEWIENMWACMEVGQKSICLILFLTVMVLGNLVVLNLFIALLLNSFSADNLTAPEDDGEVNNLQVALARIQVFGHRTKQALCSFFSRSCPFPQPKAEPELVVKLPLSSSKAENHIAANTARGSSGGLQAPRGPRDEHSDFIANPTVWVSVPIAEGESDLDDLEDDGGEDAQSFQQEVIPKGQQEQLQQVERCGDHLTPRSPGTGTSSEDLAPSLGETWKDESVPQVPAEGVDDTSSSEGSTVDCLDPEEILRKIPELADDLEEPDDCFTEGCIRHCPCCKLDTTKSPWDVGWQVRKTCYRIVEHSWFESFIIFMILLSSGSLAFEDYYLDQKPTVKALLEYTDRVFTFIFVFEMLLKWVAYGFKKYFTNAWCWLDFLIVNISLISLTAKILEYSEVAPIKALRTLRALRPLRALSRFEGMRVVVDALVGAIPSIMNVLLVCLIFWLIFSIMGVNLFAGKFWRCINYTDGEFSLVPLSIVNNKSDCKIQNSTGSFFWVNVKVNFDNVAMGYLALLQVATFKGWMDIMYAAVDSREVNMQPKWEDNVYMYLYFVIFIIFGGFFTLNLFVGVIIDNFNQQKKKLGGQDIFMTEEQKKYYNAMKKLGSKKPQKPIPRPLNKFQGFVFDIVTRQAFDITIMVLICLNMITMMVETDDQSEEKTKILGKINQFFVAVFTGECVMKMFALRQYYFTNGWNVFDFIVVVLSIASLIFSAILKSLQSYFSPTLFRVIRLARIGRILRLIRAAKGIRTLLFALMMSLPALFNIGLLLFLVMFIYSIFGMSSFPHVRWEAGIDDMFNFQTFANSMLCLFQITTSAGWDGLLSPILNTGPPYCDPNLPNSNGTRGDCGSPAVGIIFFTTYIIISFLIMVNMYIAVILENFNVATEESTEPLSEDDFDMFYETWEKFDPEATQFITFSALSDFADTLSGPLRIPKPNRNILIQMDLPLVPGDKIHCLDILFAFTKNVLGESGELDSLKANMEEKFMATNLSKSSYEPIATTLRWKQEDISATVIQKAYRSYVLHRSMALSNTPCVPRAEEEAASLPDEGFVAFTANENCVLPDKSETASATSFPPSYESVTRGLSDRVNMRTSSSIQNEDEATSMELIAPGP

pIC50 | Structure (SMILES)
< 7.00 | O=C(Nc1ccc[n+]([O-])c1)c1nc2ccccc2nc1N1CCCC(F)(F)CC1 [US20250115578, KH01]
< 8.00 | O=C(Nc1cc[nH]c(=O)c1)c1nc2ccccc2nc1N1CCCC(F)(F)CC1 [US20250115578, KH03]
7.18 | O=C(Nc1cn[nH]c(=O)c1)c1nc2ccccc2nc1N1CCCC(F)(F)CC1 [US20250115578, KH04]
